One experiment concerns Alpha7. The experiment is described as follows: PDSP primary binding Alpha7. The settings on record: primary binding, 10,000 nM; last figure of the line = mean of the 4 before it. How it is done: (§1) To determine if any off-target receptor-binding effects are present, all the novel ligands were sent to the National Institute of Mental Health (NIMH), Psychoactive Drug Screening Program (PDSP). The ligands were screened over a panel of 47 receptors, ion channels, and transporters to determine any other possible interactions with […]. The hERG-binding was also determined. […] No binding of the test compounds to calcium channels was observed. […] It is necessary to screen the compounds for hERG-binding during the early process of drug discovery. The unintentional binding of many drugs to hERG can cause blockade of hERG K+ channels in the heart, which can cause many side effects including cardiac arrhythmias and sudden death. […] All of the α5 imidazodiazepines were tested for hERG-binding.
(§2) The NIMH PDSP assay protocol book [https://kidbdev.med.unc.edu/databases/PDSP%20Protocols%20II%202013-03-28.pdf accessed on 23 April 2023]. describes the protocols for primary and secondary radio-ligand binding assays. These assays were carried out in a final volume of 125 µL per well in the appropriate binding buffer.
(§3) The binding of a ligand to a receptor, ion channel, or transporter was determined in the […] of 10 µM of the appropriate reference compound. […] Plates were incubated in the dark for 90 min at rt, and the reactions were stopped by vacuum filtration onto 0.3% polyethyleneimine (PEI) soaked 96-well filter mats using a 96-well Filtermateharvester. This was followed by three washes with cold PBS buffer. Radioactivity was then counted on a Microbeta counter. Nonlinear regression was used to analyze the data with N = 6 replicates.

The next experiment addresses T1, NTS1 (Homo sapiens, UniProt P30989).
T1 construct: purchased NIMH Psychoactive Drug Screening Program (PDSP)
In words: PDSP primary binding NTS1. The following applies: primary binding, 10,000 nM; last figure of the line = mean of the 4 before it; read-out: NTS1, PDSP raw data, mean. Here is the method: as §1, §2, §3

For a further experiment, the target named is T2, Alpha4Beta4 (Rattus norvegicus, UniProt P09483+P12392).
T2 construct: purchased NIMH Psychoactive Drug Screening Program (PDSP)
In words: PDSP primary binding Alpha4Beta4. The settings on record: primary binding, 10,000 nM; last figure of the line = mean of the 4 before it; read-out: Alpha4Beta4, PDSP raw data, mean. Here is the method: as §1, §2, §3

For a further experiment, the target named is T3, D3 (Homo sapiens, UniProt P35462).
T3 construct: purchased NIMH Psychoactive Drug Screening Program (PDSP)
The experiment is described as follows: PDSP primary binding D3. The following applies: 1.5 h; primary binding, 10,000 nM; last figure of the line = mean of the 4 before it; read-out: D3, PDSP raw data, mean. How it is done: as §1, §2, §3

The subject of the next experiment is Sigma 2. The experiment is described as follows: PDSP primary binding Sigma 2. The settings on record: primary binding, 10,000 nM; last figure of the line = mean of the 4 before it. How it is done: as §1, §2, §3
In another experiment the test system is Sigma 1. The experiment is described as follows: PDSP primary binding Sigma 1. The settings on record: primary binding, 10,000 nM; last figure of the line = mean of the 4 before it. Here is the method: as §1, §2, §3
Experiment [1] addresses peripheral benzodiazepine receptors (PBR) (Rattus norvegicus, UniProt P16257). The experiment is described as follows: PDSP radioligand binding at PBR.
From the text: The compounds were also screened at PDSP to determine any binding with peripheral benzodiazepine receptors (PBR). A number of biological processes are associated with PBR. The most prevalent are transportation of anions for mitochondrial transmembrane potential, biosynthesis of heme, regulation of neurological damage, proliferation, cell death (apoptosis), as well as regulation of steroidogenesis. The test compounds were screened in the primary binding assay to determine the % inhibition at PBR. […] These compounds were then subjected to a secondary screening to determine the Ki (nM) value for PBR receptors.
as §2, §3

The next experiment deals with T4, Beta2 (Homo sapiens, UniProt P07550).
T4 construct: purchased NIMH Psychoactive Drug Screening Program (PDSP)
In words: PDSP primary binding Beta2. The settings on record: 1.5 h; primary binding, 10,000 nM; last figure of the line = mean of the 4 before it; read-out: Beta2, PDSP raw data, mean. How it is done: as §1, §2, §3

The next experiment concerns the target T5, Alpha2Beta4 (Rattus norvegicus, UniProt P12389+P12392).
T5 construct: purchased NIMH Psychoactive Drug Screening Program (PDSP)
The experiment is described as follows: PDSP primary binding Alpha2Beta4. The following applies: primary binding, 10,000 nM; last figure of the line = mean of the 4 before it; read-out: Alpha2Beta4, PDSP raw data, mean. Here is the method: as §1, §2, §3

The target of a further experiment is T6, M1 (Homo sapiens, UniProt P11229).
T6 construct: purchased NIMH Psychoactive Drug Screening Program (PDSP)
T6 sequence (P11229 1-460): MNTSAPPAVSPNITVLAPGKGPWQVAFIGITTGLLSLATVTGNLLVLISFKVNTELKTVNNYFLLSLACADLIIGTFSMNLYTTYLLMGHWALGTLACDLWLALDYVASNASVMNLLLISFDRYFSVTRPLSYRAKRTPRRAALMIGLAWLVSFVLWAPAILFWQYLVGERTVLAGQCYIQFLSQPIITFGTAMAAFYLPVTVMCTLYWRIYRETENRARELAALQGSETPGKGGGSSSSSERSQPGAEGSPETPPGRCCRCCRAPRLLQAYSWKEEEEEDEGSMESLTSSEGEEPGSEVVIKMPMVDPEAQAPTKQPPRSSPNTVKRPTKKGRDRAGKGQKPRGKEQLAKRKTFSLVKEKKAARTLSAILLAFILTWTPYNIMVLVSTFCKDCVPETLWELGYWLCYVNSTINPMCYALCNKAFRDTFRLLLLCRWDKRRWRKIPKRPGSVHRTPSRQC
In words: PDSP primary binding M1. The following applies: primary binding, 10,000 nM; last figure of the line = mean of the 4 before it; read-out: M1, PDSP raw data, mean. Here is the method:
as §1, §2, §3

For another experiment, the target named is T7, V2 (Homo sapiens, UniProt P30518).
T7 construct: purchased NIMH Psychoactive Drug Screening Program (PDSP)
In words: PDSP primary binding V2. The following applies: primary binding, 10,000 nM; last figure of the line = mean of the 4 before it; read-out: V2, PDSP raw data, mean. Here is the method: as §1, §2, §3

For a further experiment, the target named is T8, Alpha2B (Homo sapiens, UniProt P18089).
T8 construct: purchased NIMH Psychoactive Drug Screening Program (PDSP)
T8 sequence (P18089 1-450): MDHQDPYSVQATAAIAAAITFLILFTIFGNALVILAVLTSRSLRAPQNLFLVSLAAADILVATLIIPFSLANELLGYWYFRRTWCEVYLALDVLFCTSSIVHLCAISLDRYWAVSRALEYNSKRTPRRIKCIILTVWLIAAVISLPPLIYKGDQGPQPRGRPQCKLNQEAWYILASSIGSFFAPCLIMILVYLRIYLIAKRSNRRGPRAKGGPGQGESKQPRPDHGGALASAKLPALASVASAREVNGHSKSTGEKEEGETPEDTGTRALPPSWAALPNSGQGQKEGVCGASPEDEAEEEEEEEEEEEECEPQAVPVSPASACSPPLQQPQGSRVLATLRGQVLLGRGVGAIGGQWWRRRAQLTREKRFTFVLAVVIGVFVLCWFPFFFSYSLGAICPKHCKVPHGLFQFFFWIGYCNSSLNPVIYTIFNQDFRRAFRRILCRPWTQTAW
In words: PDSP primary binding Alpha2B. The following applies: 1.5 h; primary binding, 10,000 nM; last figure of the line = mean of the 4 before it; read-out: Alpha2B, PDSP raw data, mean. Here is the method: as §1, §2, §3

The mark [2] stands for this setting: 1.5 h, primary binding, 10,000 nM, last figure of the line = mean of the 4 before it, some tables list PBR twice, read-out: PBR, PDSP raw data, mean.
Setting [3] is: at 10,000 nM, N = 5, read-out: Binding Affinity at PBR % Inhibition (Primary).

6 molecules from paper PMC10303271, “Synthesis and Receptor Binding Studies of α5 GABAAR Selective Novel Imidazodiazepines Targeted for Psychiatric and Cognitive Disorders” (Molecules, 2023) can be followed below.

SMILES strings stand for the structures. Like-named read-outs stand apart in the source and are kept apart here.

T1 sequence (P30989 whole entry): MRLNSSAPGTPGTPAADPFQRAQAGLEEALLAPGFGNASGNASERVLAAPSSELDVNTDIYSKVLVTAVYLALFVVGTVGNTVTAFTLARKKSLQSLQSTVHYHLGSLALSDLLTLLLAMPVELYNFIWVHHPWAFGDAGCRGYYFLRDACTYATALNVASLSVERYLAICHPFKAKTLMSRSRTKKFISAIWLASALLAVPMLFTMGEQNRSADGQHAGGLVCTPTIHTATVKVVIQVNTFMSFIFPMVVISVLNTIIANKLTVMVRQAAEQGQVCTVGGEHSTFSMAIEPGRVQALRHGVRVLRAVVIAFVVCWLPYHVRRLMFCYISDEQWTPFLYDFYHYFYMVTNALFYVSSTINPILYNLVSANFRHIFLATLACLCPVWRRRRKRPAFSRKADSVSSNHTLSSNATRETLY
T7 sequence (P30518 whole entry): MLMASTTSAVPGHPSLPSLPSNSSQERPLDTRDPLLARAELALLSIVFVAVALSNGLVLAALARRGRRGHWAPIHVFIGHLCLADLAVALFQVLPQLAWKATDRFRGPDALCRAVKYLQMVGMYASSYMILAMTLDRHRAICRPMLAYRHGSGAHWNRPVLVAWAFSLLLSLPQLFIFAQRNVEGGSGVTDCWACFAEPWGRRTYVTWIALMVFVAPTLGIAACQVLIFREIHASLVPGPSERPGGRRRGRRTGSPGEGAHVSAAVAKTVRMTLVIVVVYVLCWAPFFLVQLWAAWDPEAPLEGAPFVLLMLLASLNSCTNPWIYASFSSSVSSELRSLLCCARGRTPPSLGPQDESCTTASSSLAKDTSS
T2 sequence (P09483 31-630): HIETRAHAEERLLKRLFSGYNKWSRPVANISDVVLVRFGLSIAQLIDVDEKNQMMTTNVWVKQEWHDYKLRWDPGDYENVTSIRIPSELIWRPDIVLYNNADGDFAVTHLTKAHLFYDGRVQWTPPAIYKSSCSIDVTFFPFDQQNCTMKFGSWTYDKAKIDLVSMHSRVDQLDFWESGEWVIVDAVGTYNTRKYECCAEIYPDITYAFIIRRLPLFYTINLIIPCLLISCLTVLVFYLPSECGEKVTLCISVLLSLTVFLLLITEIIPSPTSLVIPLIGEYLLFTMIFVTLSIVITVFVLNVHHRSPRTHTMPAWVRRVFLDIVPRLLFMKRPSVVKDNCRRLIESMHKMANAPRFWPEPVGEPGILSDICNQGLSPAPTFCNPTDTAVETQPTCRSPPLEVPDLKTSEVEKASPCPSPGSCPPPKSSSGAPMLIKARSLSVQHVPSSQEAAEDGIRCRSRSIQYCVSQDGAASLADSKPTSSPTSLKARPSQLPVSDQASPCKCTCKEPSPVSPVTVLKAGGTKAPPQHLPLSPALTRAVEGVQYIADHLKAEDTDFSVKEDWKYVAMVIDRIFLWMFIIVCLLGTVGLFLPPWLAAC
T2 sequence (P12392 21-495): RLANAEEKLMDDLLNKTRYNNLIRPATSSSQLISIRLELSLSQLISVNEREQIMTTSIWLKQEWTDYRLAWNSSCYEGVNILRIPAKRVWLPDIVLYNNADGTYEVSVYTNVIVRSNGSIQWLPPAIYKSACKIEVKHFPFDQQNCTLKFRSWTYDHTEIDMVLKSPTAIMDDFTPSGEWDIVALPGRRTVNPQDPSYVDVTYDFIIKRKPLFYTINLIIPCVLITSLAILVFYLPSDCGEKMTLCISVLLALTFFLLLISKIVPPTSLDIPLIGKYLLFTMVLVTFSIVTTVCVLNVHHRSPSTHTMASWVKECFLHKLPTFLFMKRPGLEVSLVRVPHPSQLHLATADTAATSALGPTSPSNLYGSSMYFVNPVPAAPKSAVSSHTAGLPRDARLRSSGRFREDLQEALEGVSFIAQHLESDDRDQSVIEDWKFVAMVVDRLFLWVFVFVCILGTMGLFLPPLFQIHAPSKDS
T3 sequence (P35462 whole entry): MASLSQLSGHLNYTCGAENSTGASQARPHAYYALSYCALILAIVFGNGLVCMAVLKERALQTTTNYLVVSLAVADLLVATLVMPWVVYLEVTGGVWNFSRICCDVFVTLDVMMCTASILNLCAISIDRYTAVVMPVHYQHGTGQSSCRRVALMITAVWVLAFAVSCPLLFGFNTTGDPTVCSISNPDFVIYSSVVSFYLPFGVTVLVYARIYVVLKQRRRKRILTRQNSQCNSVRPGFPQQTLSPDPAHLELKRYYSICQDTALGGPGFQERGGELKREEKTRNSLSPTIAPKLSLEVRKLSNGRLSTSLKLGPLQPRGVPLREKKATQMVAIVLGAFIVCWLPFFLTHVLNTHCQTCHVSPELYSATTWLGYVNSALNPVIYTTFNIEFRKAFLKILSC
T4 sequence (P07550 whole entry): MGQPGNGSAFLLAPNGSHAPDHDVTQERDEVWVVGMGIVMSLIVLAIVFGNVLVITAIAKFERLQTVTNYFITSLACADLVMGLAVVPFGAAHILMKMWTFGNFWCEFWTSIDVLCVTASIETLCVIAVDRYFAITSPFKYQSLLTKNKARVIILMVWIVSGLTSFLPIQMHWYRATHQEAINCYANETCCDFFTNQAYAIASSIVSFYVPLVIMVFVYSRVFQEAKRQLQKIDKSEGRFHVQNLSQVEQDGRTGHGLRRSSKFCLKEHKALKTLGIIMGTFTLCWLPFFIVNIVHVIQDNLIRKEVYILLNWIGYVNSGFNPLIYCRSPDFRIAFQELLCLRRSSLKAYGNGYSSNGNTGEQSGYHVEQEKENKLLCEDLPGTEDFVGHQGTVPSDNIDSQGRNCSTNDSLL
T5 sequence (P12389 28-511): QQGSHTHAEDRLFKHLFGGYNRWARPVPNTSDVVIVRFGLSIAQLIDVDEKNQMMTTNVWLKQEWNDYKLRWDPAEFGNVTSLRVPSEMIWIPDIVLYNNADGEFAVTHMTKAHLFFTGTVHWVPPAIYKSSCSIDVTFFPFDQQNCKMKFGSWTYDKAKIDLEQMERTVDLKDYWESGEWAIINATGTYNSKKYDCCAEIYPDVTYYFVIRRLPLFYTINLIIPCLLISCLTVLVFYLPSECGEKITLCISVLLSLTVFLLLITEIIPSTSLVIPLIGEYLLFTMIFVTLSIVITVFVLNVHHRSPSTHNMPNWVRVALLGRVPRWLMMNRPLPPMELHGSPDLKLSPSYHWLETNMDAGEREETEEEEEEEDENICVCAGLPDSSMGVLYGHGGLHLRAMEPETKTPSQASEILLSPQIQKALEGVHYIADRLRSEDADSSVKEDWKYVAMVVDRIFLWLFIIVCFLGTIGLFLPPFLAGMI
T5 sequence (P12392 21-495): as the sequence (P12392 21-495) above
peripheral benzodiazepine receptors (PBR), sequence (P16257 whole entry): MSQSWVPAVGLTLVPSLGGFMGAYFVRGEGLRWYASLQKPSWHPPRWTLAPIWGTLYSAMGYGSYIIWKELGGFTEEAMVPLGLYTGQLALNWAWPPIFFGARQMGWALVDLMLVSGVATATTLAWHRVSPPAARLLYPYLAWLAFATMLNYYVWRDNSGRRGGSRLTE

As for `CCc1noc(-c2ncn3c2CN=C(c2ccccc2F)c2cc(C4CC4)ccc2-3)n1` [Compound 44, 5-(8-Cyclopropyl-6-(2′-fluorophenyl)-4H-benzo[f]imidazo[1,5-a][1,4]diazepin-3-yl)-3-ethyl-1,2,4-oxadiazole], the “Alpha7, PDSP raw data, mean” value with Alpha7 is listed as -24.22%. Further, the inhibition at 10 µM was -62.2% at NTS1; 10.6% on Alpha4Beta4; 16.1% on D3; 71% in [1] (setting [2]); 3.97% at Beta2; 8.23% at Alpha2Beta4. For the same molecule, the figures for the inhibition at 10 µM on M1, at V2 and at Alpha2B were 9.28%, 27.7% and 36.6%, respectively. In addition, the “Sigma 2, PDSP raw data, mean” value in the experiment with Sigma 2 is recorded as 74.98%. Moreover, the “Sigma 1, PDSP raw data, mean” value in the experiment with Sigma 1 was 53.37%.

For the molecule `C#Cc1ccc2c(c1)C(c1ccccc1Cl)=N[C@H](C)c1c(C(=O)N(C)CC)ncn1-2` [Compound 29], in the experiment with Alpha7, the “Alpha7, PDSP raw data, mean” value is -2.05%. The inhibition at 10 µM on NTS1 is -19.5%; on Alpha4Beta4, -3.3%; on D3 it was 13%; in [1] (setting [2]) it was -10.9%; on Beta2, -7.07%; at Alpha2Beta4, 3.06%. Besides, the inhibition at 10 µM was found to be 4.95% on M1, 21.9% on V2 and 7.23% on Alpha2B. Moreover, the “Sigma 2, PDSP raw data, mean” value in the experiment with Sigma 2 came out at 13.69%. Further, the “Sigma 1, PDSP raw data, mean” value in the experiment with Sigma 1 is on record as 35.65%.

As for `CCc1noc(-c2ncn3c2[C@@H](C)N=C(c2ccccc2F)c2cc(-c4ccccc4)ccc2-3)n1` [Compound 35, (R)-3-Ethyl-5-(6-(2′-fluorophenyl)-4-methyl-8-phenyl-4H-benzo[f]imidazo[1,5-a][1,4]diazepin-3-yl)-1,2,4-oxadiazole], in the experiment on Alpha7, the “Alpha7, PDSP raw data, mean” value is listed as -23.18%. The inhibition at 10 µM on NTS1 was -32.6%; at Alpha4Beta4, 17.9%; on D3, 16.2%; in [1] (setting [2]) it was 71.8%; in [1] (setting [3]), 71.8 ± 10.5%; at Beta2, 0.34%. Also, the inhibition at 10 µM on Alpha2Beta4 was 10.7%; on M1 it was -1.63%; on V2, 37.4%; at Alpha2B it was 45.7%. In addition, the “Sigma 2, PDSP raw data, mean” value with Sigma 2 amounted to 85.36%. In the experiment on Sigma 1, the “Sigma 1, PDSP raw data, mean” value is recorded as 45.25%. Besides, the Ki (in general, the equilibrium dissociation constant of an inhibitor or competing ligand from its target) in [1] (N = 2, read-out: Binding Affinity at PBR Ki (Secondary Screen)) amounted to 1110 ± 24.5 nM.

As to `C#Cc1ccc2c(c1)C(c1ccccn1)=N[C@@H](C)c1c(C(=O)N(C)C)ncn1-2` [Compound 31, (S)-8-Ethynyl-N,N,4-trimethyl-6-(pyridin-2′-yl)-4H-benzo[f]imidazo[1,5-a][1,4]diazepine-3-carboxamide], in the experiment on Alpha7, the “Alpha7, PDSP raw data, mean” value is reported as -3.44%. Further, the inhibition at 10 µM on NTS1 was 0.28%; at Alpha4Beta4, 6.85%; at D3, 1.06%; in experiment [1] (setting [2]) it was 4.44%; at Beta2 it was -0.05%; at Alpha2Beta4, 6.58%. The inhibition at 10 µM on M1 is -20%; on V2, 15.4%; at Alpha2B, -0.93%. Moreover, in the experiment with Sigma 2, the “Sigma 2, PDSP raw data, mean” value was -12.63%. For the same molecule, the “Sigma 1, PDSP raw data, mean” value in the experiment with Sigma 1 was 27.79%.

With `CC(C)c1noc(-c2ncn3c2[C@@H](C)N=C(c2ccccc2F)c2cc(Cl)ccc2-3)n1` [Compound 37, (R)-5-(8-Chloro-6-(2′-fluorophenyl)-4-methyl-4H-benzo[f]imidazo[1,5-a][1,4]diazepin-3-yl)-3-isopropyl-1,2,4-oxadiazole], the “Alpha7, PDSP raw data, mean” value in the experiment on Alpha7 is on record as 21.26%. Further, the inhibition at 10 µM was -16.3% at NTS1; 12.9% on Alpha4Beta4; -0.7% on D3; 89.6% in [1] (setting [2]); 88 ± 1.32% in experiment [1] (setting [3]); 6.55% at Beta2. The inhibition at 10 µM at Alpha2Beta4 is -5.48%; on M1 it was -0.48%; at V2 it was -7.17%; on Alpha2B, 18.5%. Also, the “Sigma 2, PDSP raw data, mean” value in the experiment with Sigma 2 came out at 76.17%. Moreover, in the experiment with Sigma 1, the “Sigma 1, PDSP raw data, mean” value was 5.67%. The molecule further came in with a Ki in experiment [1] of 838 ± 135 nM.

Turning to `C#Cc1ccc2c(c1)C(c1ccccn1)=N[C@@H](C)c1c(C(=O)NC)ncn1-2` [Compound 23, (S)-8-Ethynyl-N,4-dimethyl-6-(pyridin-2′-yl)-4H-benzo[f]imidazo[1,5-a][1,4]diazepine-3-carboxamide], the “Alpha7, PDSP raw data, mean” value with Alpha7 is recorded as -5.28%. In addition, the inhibition at 10 µM on NTS1 was -5.89%; on Alpha4Beta4, 4.42%; on D3 it was 7.31%; in experiment [1] (setting [2]), 34.9%; at Beta2 it was -5.89%; at Alpha2Beta4, 4.5%. In addition, the inhibition at 10 µM at M1 was -12%; at V2, 10.2%; at Alpha2B, 4.64%. In the experiment with Sigma 2, the “Sigma 2, PDSP raw data, mean” value stood at 8.85%. Moreover, the “Sigma 1, PDSP raw data, mean” value with Sigma 1 came out at 43.18%.
